Source: patent US20260076973A1 (priority 2023, published 2026)
Where a name gives a salt, the structure may show the parent alone.

Test system: SARS-CoV-2 (WA1)
Test: microbe, parasite or virus in culture
Assay type: cell-based
Conditions: Severe acute respiratory syndrome coronavirus 2, Vero C1008

Compound Cc1ccc(Nc2nc(N3CCOCC3)nc(N3CCOCC3)n2)cc1C [VIRADEM-10884, (3,4-dimethylphenyl)-(4,6-dimorpholin-4-yl-[1,3,5]triazin-2-yl)-amine] has an IC50 of 80 nM.

Same assay, conditions: Severe acute respiratory syndrome coronavirus 2, Vero C1008, VIRADEM compounds, SARS-CoV-2(WA1) CPE assay, Round 2, concentration range 1000-0.05 nM, Vero E6; read-out: IC50

CCOc1ccc(Nc2nc(N3CCOCC3)nc(N3CCOCC3)n2)cc1 [VIRADEM-9794, (4,6-Dimorpholin-4-yl-[1,3,5]triazin-2-yl)-(4-ethoxyphenyl)-amine hydrochloride] and COc1ccc(Nc2nc(N3CCOCC3)nc(N3CCOCC3)n2)cc1 [VIRADEM-10885, (4,6-Dimorpholin-4-yl-[1,3,5]triazin-2-yl)-(4-methoxyphenyl)-amine hydrochloride] cannot be ordered by IC50: over 1000 nM for the first, over 1000 nM for the second.

First: CCCCc1ccc(Nc2nc(N3CCOCC3)nc(N3CCOCC3)n2)cc1 [VIRADEM-10257, (4-n-Butylphenyl)-(4,6-dimorpholin-4-yl-[1,3,5]triazin-2-yl)-amine hydrochloride]
Second: CCc1ccc(Nc2nc(N3CCOCC3)nc(N3CCOCC3)n2)cc1 [VIRADEM-10883, (4,6-Dimorpholin-4-yl-[1,3,5]triazin-2-yl)-(4-ethylphenyl)-amine hydrochloride]
The IC50 of the first is higher: over 1000 nM for the first, 990 nM for the second. The second is the more potent here.

Compared with Clc1ccc(Nc2nc(N3CCOCC3)nc(N3CCOCC3)n2)cc1Cl [VIRADEM-10258, (3,4-Dichlorophenyl)-(4,6-dimorpholin-4-yl-[1,3,5]triazin-2-yl)-amine hydrochloride], Cc1ccc(Nc2nc(N3CCOCC3)nc(N3CCOCC3)n2)cc1Cl [VIRADEM-10886, (3-Chloro-4-methylphenyl)-(4,6-dimorpholin-4-yl-[1,3,5]triazin-2-yl)-amine hydrochloride] is 2-fold lower in IC50: 610 nM for the first, 310 nM for the second. The second is the more potent here.

c1ccc(Nc2nc(N3CCOCC3)nc(N3CCOCC3)n2)cc1 [VIRADEM-10846, (4,6-Dimorpholin-4-yl-[1,3,5]triazin-2-yl)-phenylamine hydrochloride] and S=C(NNc1nc(N2CCOCC2)nc(N2CCOCC2)n1)Nc1ccccc1 [VIRADEM-10867, 2-(4,6-dimorpholine-4-yl-1,3,5-triazine-2-yl)-N-phenylhydrazine-carbothioamide] cannot be ordered by IC50: over 1000 nM for the first, over 1000 nM for the second.

Cc1cccc(Nc2nc(N3CCOCC3)nc(N3CCOCC3)n2)c1 [VIRADEM-10848, (4,6-Dimorpholin-4-yl-[1,3,5]triazin-2-yl)-m-tolyl-amine hydrochloride] and Clc1cccc(Nc2nc(N3CCOCC3)nc(N3CCOCC3)n2)c1 [VIRADEM-10902, (3-Chlorophenyl)-(4,6-dimorpholin-4-yl-[1,3,5]triazin-2-yl)-amine hydrochloride] cannot be ordered by IC50: over 1000 nM for the first, over 1000 nM for the second.

Fc1ccc(Nc2nc(N3CCOCC3)nc(N3CCOCC3)n2)cc1 [VIRADEM-10849, (4,6-Dimorpholin-4-yl-[1,3,5]triazin-2-yl)-(4-fluorophenyl)-amine hydrochloride] and Cc1ccc(Nc2nc(N3CCOCC3)nc(N3CCOCC3)n2)cc1 [VIRADEM-10882, (4,6-Dimorpholin-4-yl-[1,3,5]triazin-2-yl)-p-tolyl-amine hydrochloride] cannot be ordered by IC50: over 1000 nM for the first, over 1000 nM for the second.

COc1cccc(Nc2nc(N3CCOCC3)nc(N3CCOCC3)n2)c1 [VIRADEM-10879, (4,6-Dimorpholin-4-yl-[1,3,5]triazin-2-yl)-(3-methoxyphenyl)-amine hydrochloride] and COc1ccccc1Nc1nc(N2CCOCC2)nc(N2CCOCC2)n1 [VIRADEM-10881, (4,6-Dimorpholin-4-yl-[1,3,5]triazin-2-yl)-(2-methoxyphenyl)-amine hydrochloride] cannot be ordered by IC50: over 1000 nM for the first, over 1000 nM for the second.

Cc1cc(C)cc(Nc2nc(N3CCOCC3)nc(N3CCOCC3)n2)c1 [VIRADEM-10887, (3,5-Dimethylphenyl)-(4,6-dimorpholin-4-yl-[1,3,5]triazin-2-yl)-amine] and Fc1ccc(Nc2nc(N3CCOCC3)nc(N3CCOCC3)n2)cc1Cl [VIRADEM-10893, (3-Chloro-4-fluorophenyl)-(4,6-dimorpholin-4-yl-[1,3,5]triazin-2-yl)-amine hydrochloride] cannot be ordered by IC50: over 1000 nM for the first, over 1000 nM for the second.

First: FC(F)(F)Oc1ccc(Nc2nc(N3CCOCC3)nc(N3CCOCC3)n2)cc1 [VIRADEM-10891, (4,6-Dimorpholin-4-yl-[1,3,5]triazin-2-yl)-(4-trifluoromethoxyphenyl)-amine hydrochloride]
Second: Clc1ccc(Nc2nc(N3CCOCC3)nc(N3CCOCC3)n2)cc1 [VIRADEM-10894, (4-Chlorophenyl)-(4,6-dimorpholin-4-yl-[1,3,5]triazin-2-yl)-amine hydrochloride]
The IC50 of the first is higher: over 1000 nM for the first, 840 nM for the second.

c1ccc(Oc2ccc(Nc3nc(N4CCOCC4)nc(N4CCOCC4)n3)cc2)cc1 [VIRADEM-10892, (4,6-Dimorpholin-4-yl-[1,3,5]triazin-2-yl)-(4-phenoxyphenyl)-amine hydrochloride] and c1ccc(Nc2nc(N3CCCC3)nc(N3CCCC3)n2)cc1 [VIRADEM-11528, (4,6-Dipyrrolidin-1-yl-[1,3,5]triazin-2-yl)-phenylamine hydrochloride] cannot be ordered by IC50: over 1000 nM for the first, over 1000 nM for the second.

C1CCN(c2nc(N3CCOCC3)nc(N3CCOCC3)n2)CC1 [VIRADEM-10903, 2,4-Dimorpholin-4-yl-6-piperidin-1-yl-[1,3,5]triazin hydrochloride] and Clc1cccc(Nc2nc(N3CCCCC3)nc(N3CCCCC3)n2)c1 [VIRADEM-11499, (3-Chlorophenyl)-(4,6-dipiperidine-1-yl-[1,3,5]triazin-2-yl)-amine hydrochloride] cannot be ordered by IC50: over 1000 nM for the first, over 1000 nM for the second.

COc1ccc(Nc2nc(N3CCCCC3)nc(N3CCCCC3)n2)cc1 [VIRADEM-11041, (4,6-Dipiperidine-1-yl-[1,3,5]triazin-2-yl)-(4-methoxyphenyl)-amine hydrochloride] and CCOc1ccc(Nc2nc(N3CCCC3)nc(N3CCCC3)n2)cc1 [VIRADEM-11515, (4,6-Dipyrrolidin-1-yl-[1,3,5]triazin-2-yl)-(4-ethoxyphenyl)-amine hydrochloride] cannot be ordered by IC50: over 1000 nM for the first, over 1000 nM for the second.

Cc1ccc(Nc2nc(C3CCNC3)nc(C3CCNC3)n2)cc1 (stereo not drawn) [VIRADEM-11139, (4,6-Dipyrrolidin-4-yl-[1,3,5]triazin-2-yl)-p-tolyl-amine hydrochloride] and c1ccc(Oc2ccc(Nc3nc(C4CCNC4)nc(C4CCNC4)n3)cc2)cc1 (stereo not drawn) [VIRADEM-11503, (4,6-Dipyrrolidin-4-yl-[1,3,5]triazin-2-yl)-(4-phenoxyphenyl)-amine hydrochloride] cannot be ordered by IC50: over 1000 nM for the first, over 1000 nM for the second.

CC(=O)Nc1ccc(Nc2nc(N3CCCC3)nc(N3CCCC3)n2)cc1 [VIRADEM-11510, N-[4-(4,6-Dipyrrolidin-1-yl-[1,3,5]triazin-2-ylamino)-phenyl]-acetamide hydrochloride] and CCCCc1ccc(Nc2nc(N3CCCC3)nc(N3CCCC3)n2)cc1 [VIRADEM-11511, (4-Butylphenyl)-(4,6-dipyrrolidin-1-yl-[1,3,5]triazin-2-yl)-amine hydrochloride] cannot be ordered by IC50: over 1000 nM for the first, over 1000 nM for the second.

c1cc2c(cc1Nc1nc(N3CCCC3)nc(N3CCCC3)n1)OCO2 [VIRADEM-11522, Benzo[1,3]dioxol-5-yl-(4,6-dipyrrolidin-1-yl-[1,3,5]triazin-2-yl)-amine hydrochloride] and COc1ccccc1Nc1nc(N2CCCC2)nc(N2CCCC2)n1 [VIRADEM-11597, (4,6-Dipyrrolidin-1-yl-[1,3,5]triazin-2-yl)-(2-methoxyphenyl)-amine hydrochloride] cannot be ordered by IC50: over 1000 nM for the first, over 1000 nM for the second.

c1cc2c(cc1Nc1nc(Nc3ccc4c(c3)OCO4)nc(N3CCOCC3)n1)OCO2 [VIRADEM-11566, N,N^1-bis-benzo[1,3]dioxol-5-yl-6-morpholin-4-yl-[1,3,5]triazine-2,4-diamine] and CC(=O)c1cccc(Nc2nc(Nc3cccc(C)c3)nc(N3CCOCC3)n2)c1 [VIRADEM-11778, 1-[3-(4-Morpholin-4-yl-6-m-tolylamino-[1,3,5]triazin-2-ylamino)-phenyl]-ethanone hydrochloride] are the same in IC50: 320 nM for the first, 320 nM for the second.

First: CCOC(=O)c1ccc(Nc2nc(Nc3ccc(F)cc3)nc(N3CCOCC3)n2)cc1 [VIRADEM-11660, 4-[4-(4-Fluorophenylamino)-6-morpholin-4-yl-[1,3,5]triazin-2-ylamino]benzoic acid ethyl ester]
Second: NC1=NC(Nc2ccc3c(c2)OCO3)N(c2ccc(F)cc2)C(N2CCOCC2)=N1 (stereo not drawn) [VIRADEM-11674, N-Benzo[1,3]dioxol-5-yl-N^1-(4-fluorophenyl)-6-morpholin-4-yl-[1,3,5]triazine-2,4-diamine hydrochloride]
The IC50 of the first is 1.7-fold lower: 120 nM for the first, 200 nM for the second. The first is the more potent here.

Compared with Cc1cccc(N2C(N3CCOCC3)=NC(N)=NC2Nc2ccc(Cl)cc2)c1 (stereo not drawn) [VIRADEM-11680, N-(4-Chlorophenyl)-6-morpholin-4-yl-N^1-m-tolyl-[1,3,5]triazine-2,4-diamine hydrochloride], Cc1cccc(N2C(N3CCOCC3)=NC(N)=NC2Nc2cccc(Cl)c2)c1 (stereo not drawn) [VIRADEM-11781, N-(3-Chlorophenyl)-6-morpholin-4-yl-N^1-m-tolyl-[1,3,5]triazine-2,4-diamine hydrochloride] is lower in IC50: over 1000 nM for the first, 110 nM for the second.

Same assay, conditions: VIRADEM compounds, SARS-CoV-2(WA1) CPE assay, Round 2, concentration range 1000-0.05 nM, Vero E6; read-out: IC50

COC(=O)c1ccc(Nc2nc(N3CCOCC3)nc(N3CCOCC3)n2)cc1 [VIRADEM-10890, 4-(4,6-Dimorpholin-4-yl-[1,3,5]triazin-2-ylamino-benzoic acid methyl ester hydrochloride] and c1cc2c(cc1Nc1nc(N3CCCC3)nc(N3CCCC3)n1)OCCO2 [VIRADEM-11596, -(2,3-dihydrobenzo[1,4]dioxin-6-yl)-(4,6-dipyrrolidin-1-yl-[1,3,5]triazin-2-yl)-amine hydrochloride] cannot be ordered by IC50: over 1000 nM for the first, over 1000 nM for the second.

Going from CCc1ccc(Nc2nc(Nc3ccc(Cl)c(Cl)c3)nc(N3CCOCC3)n2)cc1 [VIRADEM-11758, N-(3,4-Dichlorophenyl)-N^1-(4-ethyphenyl)-6-morpholin-4-yl-[1,3,5]triazine-2,4-diamine] to Cc1cc(C)cc(Nc2nc(Nc3ccc(Cl)c(Cl)c3)nc(N3CCOCC3)n2)c1 [VIRADEM-11759, N-(3,4-Dichlorophenyl)-N^1-(3,5-dimethyphenyl)-6-morpholin-4-yl-[1,3,5]triazine-2,4-diamine], the IC50 falls from over 1000 nM to 350 nM. The second is the more potent here.

CCNc1nc(NCC)nc(Nc2ccc(C)c(C)c2)n1 [VIRADEM-11768, N-(3,4-Dimethylhenyl)-N^1,N^2-diethyl-[1,3,5]triazine-2,4,6-triamine hydrochloride] was tested, and the IC50 was over 1000 nM.
